Consider nine molecules from patent US20240108687A1, “COMPOSITIONS AND METHODS FOR USING COMBINATIONS OF ACTIN-BASED PEPTIDES TO MODULATE CELLULAR BIOACTIVITY” (Virongy L.L.C., priority 2021, published 2024).

Data set [1] deals with HIV-1. The note with it: CD4 T lymphocytes; cited from earlier work.
Data set [2] concerns Influenza A virus (IAV). The note with it: IAV-infected mice vs solvent-treated control; cited from earlier work.
The subject of data set [3] is Influenza A virus (IAV). Particulars: cited from earlier work.
In data set [4] the test system is Murine leukemia virus (MLV), Avian leukosis virus (ALV), and Human immunodeficiency virus (HIV). The note with it: HEK293T cells transfected with viral receptors; cited from earlier work.
Data set [5] concerns HIV-1. Particulars: cited from earlier work.
Data set [6] has as its system Measles virus (MeV). The note with it: cited from earlier work.
Data set [7] deals with Influenza A virus (IAV). The note with it: MDCK cells; cited from earlier work.
In data set [8] the test system is Influenza A virus (IAV). The note with it: cited from earlier work. This is another data set of the same source.
Data set [9] has as its system HIV-1. The note with it: cited from earlier work. The source holds these as a separate data set.
Data set [10] has as its system Lenti-GFP virion particles. As to the kind of experiment: Lentiviral virion infectivity after virion incorporation of actin-based peptide. The note with it: virions first incubated with peptide to allow virion incorporation; equal amount of virions.
Method: (A) Uninfected cells control. (B) Lenti-GFP virion particles were used to directly infect target cells. […] An equal amount of virion particles in (B) and (C) were used for infection. Virion infectivity was measured by the percentage of GFP+ cells.
Data set [11] deals with lenti-GFP vector viral particles. As to the kind of experiment: Lentiviral vector (lenti-GFP) transduction of cells, flow cytometry. The note with it: B11-20AA plus polybrene, 3 days post infection, viable cells (low PI).
Method: Viral transduction of cells was measured at 3 days post infection by flow cytometry. (A) uninfected cells control. (B) Cells were infected with a lenti-GFP vector viral particles. […] Transduction efficiency was measured by the percentage of GFP+ cells. PI,_propidium iodide, was added before flow cytometry for cytotoxicity control (FL3). GFP+ cells were counted only when the cells are viable (low PI staining).
In data set [12] the test system is HEK293T cells. As to the kind of experiment: Liposome transfection of GFP-expression vector DNA with actin-based peptide. The note with it: Lenti-GFP DNA + liposome + peptide, 48 hours post transfection. It counts as cell-based. On the procedure:
FIG. 6: Example of combination of actin-based peptide with liposome to deliver nucleic acids into cells. HEK293T cells were transfected with a GFP-expression vector DNA (Lenti-GFP) in complex with liposome (DNA+Lipo) or with liposome and an actin-based peptide (N9-A20) (DNA+Lipo+N9). Following transfection, cells were quantified for GFP expression at 48 hours post transfection by flow cytometry.

Data set [13] relates to CD324 (E-cadherin). Kind of data set: Surface expression of CD324 on H9 lymphocytes, flow cytometry. It counts as cell-based, Human. Particulars: H9 lymphocytes treated 40 minutes. On the procedure:
(§1) FIG. 7: Example of actin-based peptide to enhance surface expression of multiple cellular receptors including CD325 (N-cadherin), CD144 (VE-cadherin), and CD324 (E-cadherin), which are surface molecule for cell-cell and cell-extracellular matrix binding and adhesion. (A) Human H9 lymphocyte (derivative of HutT 78 cell, from ATCC) were not treated or treated with an actin-based peptide (N7-20AA) for 40 minutes. Cells were stained on ice with PerCy-Cy5.5-labeled mouse anti-human CD325 antibody. Surface expression of CD325 before and after N7-20AA was quantified by flow cytometer. […] (B) Human H9 lymphocyte were not treated or treated with an actin-based peptide (N7-20AA) for 40 minutes. Cells were stained on ice with FITC-labeled mouse anti-human CD144 antibody. Surface expression of CD144 before and after N7-20AA was quantified by flow cytometer. […] (C) Human H9 lymphocyte were not treated or treated with an actin-based peptide (N7-20AA) for 40 minutes. Cells were stained on ice with PE-labeled mouse anti-human CD324 antibody. Surface expression of CD324 before and after N7-20A was quantified by flow cytometer.

Data set [14] relates to CD144 (VE-cadherin). Kind of data set: Surface expression of CD144 on H9 lymphocytes, flow cytometry. Particulars: H9 lymphocytes treated 40 minutes. It counts as cell-based, Human. The procedure:
as §1

The test system of data set [15] is CD325 (N-cadherin). Kind of data set: Surface expression of CD325 on H9 lymphocytes, flow cytometry. Particulars: H9 lymphocytes treated 40 minutes. It counts as cell-based, Human. On the procedure:
as §1

Take `O=C1CSC(c2cccc(Br)c2)N1c1cc(Cl)ccc1O` (stereo not drawn) [CK-548]: in data set [1], the “CD4 T cell activation and cytotoxicity at effective dosages” value is listed as “did not affect CD4 T cell activation or induce cytotoxicity”; the HIV-1 replication result is “dramatically reduced HIV-1 replication”.

In the case of `CCN(CC)CCCC(C)Nc1nc(C)cc(Nc2ccc3nc(C)cc(N)c3c2)n1` (stereo not drawn) [NSC23766], in [2], the Body weights result is on record as “increased body weights”, the Survivability result was “higher survivability” and the “Titer of IAV in lung tissue” value was “reduce titer of IAV in lung tissue”. For the same molecule, the half-maximal inhibitory concentration (IC50) in [3] (A549 cells, read-out: IC50, reduction of viral replication) was 22 µM. For the same molecule, the Viral protein expression entry in data set [3] is given as “reduced viral protein expression”.

In the case of `Cc1ccc2c(c1)C(=O)C1(O)CCN(c3ccccc3)C1=N2` (stereo not drawn) [blebbistatin], the Virus surfing entry in data set [4] is on record as “eliminated virus surfing”.

Turning to `C=C1[C@@H](C)[C@H]2[C@H](Cc3ccccc3)NC(=O)[C@]23[C@H](OC(C)=O)/C=C/[C@@](C)(O)C(=O)[C@@H](C)C/C=C/[C@H]3[C@@H]1O` [cytochalasin D], the “Accumulation of early and late reverse transcription products” value in data set [5] (pretreating cells, not 2 hours post-infection) is “reduced the accumulation of early and late reverse transcription products”. In addition, the “Reduction of nuclear accumulation of late RT products” value in data set [5] (pretreatment) was 25 fold. Further, in [6], the “Actin and H co-immunoprecipitation with M protein” value is “dramatically reduced actin co-immunoprecipitating with M, while enhancing H co-immunoprecipitation”; the “Co-transport of M-RNP to the cell surface” value is recorded as “reduces co-transport of M-RNP to the cell surface”; the “Rate of cell-cell fusion” value is “enhanced the rate of cell-cell fusion”. Besides, the Virus surfing result in [4] is reported as “eliminated virus surfing”. Also, the “Distribution of plasma membrane HA, lipid rafts and actin” value (from here on “Distribution of plasma membrane HA”) in data set [7] is given as “dramatically redistributed”. For the same molecule, the “Titers of filamentous and spherical virions” value in data set [8] is listed as “dramatically abrogated the titers of the filamentous, but not spherical, virions”.

Turning to `C/C1=C\[C@H](C)C[C@H](C)OC(=O)C[C@H](c2ccc(O)cc2)NC(=O)[C@@H](Cc2c(Br)[nH]c3ccccc23)N(C)C(=O)[C@H](C)NC(=O)[C@@H](C)C1` [jasplakinolide], in data set [6], the “Co-transport of M-RNP to the cell surface” value is on record as “not affecting M-RNP co-transport” and the Free-virus production entry is recorded as “blocked free-virus production”. Besides, the “Distribution of plasma membrane HA” value in [7] is recorded as “dramatically redistributed”.

Turning to `C/C1=C/C(=O)O[C@@H]2C[C@@H](CC[C@H](C)/C=C\C=C\CC1)O[C@@](O)([C@@H]1CSC(=O)N1)C2` [latrunculin A], the “Distribution of plasma membrane HA” value in data set [7] is recorded as “dramatically redistributed”. Also, the “gag mRNA localisation” value in [9] was “caused retention of gag mRNA in the nucleus”.

Regarding “RRRRRRRR(G/A)0-20DIKEKLCYVALDFEQEMATA [B11-20AA]”, the “Virion infectivity (percentage of GFP+ cells)” value in data set [10] is “Enhancement of lentiviral virion infectivity”. For the same molecule, in data set [11], the “Transduction efficiency (percentage of GFP+ cells)” value is reported as “Enhancement of lentiviral vector transduction”.

For the molecule “RRRRRRRR(G/A)0-20HTVPIYEGYALPHAILRLDL [N9-A20]”, the “Delivery of nucleic acids into cells (GFP expression)” value in data set [12] is reported as “enhances delivery of nucleic acids into cells”.

“RRRRRRRR(G/A)0-20QIMFETFNTPAMYVAIQAVL [N7-20AA]”: in data set [13], the “Surface expression of CD324” value is reported as “up-regulation of surface expression of CD324”. Also, the “Surface expression of CD144” value in data set [14] was “up-regulation of surface expression of CD144”. Besides, the “Surface expression of CD325” value in data set [15] was “up-regulation of surface expression of CD325”.
